According to PMC10999543, “Identification of kinase modulators as host-directed therapeutics against intracellular methicillin-resistant Staphylococcus aureus” (Frontiers in Cellular and Infection Microbiology, 2024):
Where two headings read alike, the source gives them in different places.

Columns and labels:
intracellular MRSA = format: cell-based, Staphylococcus aureus; settings: for z-scoreMRSA+ mean: mean of 3 replicates; for z-scoreMRSA+ rep 1 / %GFP+ rep 1: replicate 1; for z-scoreMRSA+ rep 2 / %GFP+ rep 2: replicate 2; for z-scoreMRSA+ rep 3 / %GFP+ rep 3: replicate 3
Protocol: (§1) The cells were resuspended in cell culture medium without antibiotics, seeded with 10,000 cells/well into Costar flat-bottom 96-well plates (Corning, Amsterdam, the Netherlands), and were incubated overnight at 37°C/5% CO2. The next day, the bacteria were centrifuged at ≥1800 g for 15 min and resuspended in cold PBS + 5 mM ethylenediaminetetraacetic acid (EDTA). The number of CFUs present in the bacterial suspension was estimated from the optical density at 600 nm (OD600) by assuming 8x10^8 CFUs to be present in a bacterial suspension with OD600 = 1, based on prior titrations. The bacterial suspension was diluted in cell culture medium without antibiotics and added to the cells. Accuracy of the multiplicity of infection (MOI) was validated by plating serial dilutions of the MRSA inoculums on Difco TS agar plates (BD Biosciences). The calculated mean MOI throughout all experiments was 6.8 ± 4.6 (mean ± SD). Infected cells were centrifuged for 3 min at 150 g and incubated for 1 hour at 37°C/5% CO2. Next, the cells were incubated with fresh cell culture medium supplemented with 30 µg/ml gentamicin sulphate (Lonza BioWhittaker, Basel, Switzerland) for 15 min at 37°C/5% CO2 to kill residual extracellular bacteria. Infected cells were incubated overnight at 37°C/5% CO2 in cell culture medium in the presence of kinase inhibitors and 5 µg/ml gentamicin sulphate-containing medium to prevent the growth of extracellular bacteria. The solvent of the compounds, DMSO, was used at equal % v/v as a negative control. For the screen, each compound was tested in triplicate, on separate cell culture plates, resulting in triplicate values for each kinase inhibitor.
(§2) HeLa cells were harvested by trypsinization and fixed with 1% paraformaldehyde. Samples were measured on a FACSLyric with HTS extension (BD Biosciences). Flow cytometry data were analysed using FlowJo version 10 (TreeStar, Ashland, OR, USA). HeLa cells positive for GFP were gated to calculate the percentage of MRSA-infected cells. The cell count was used as surrogate readout of cell viability.
To identify potential “hit” compounds, the flow cytometry data were used to calculate standard z-scores using z = (x-μ)/σ – zneg, where x is total event count or the percent of GFP-positive cells from a single well, μ is the mean from wells of the plate, σ is the standard deviation of the plate and zneg is the mean z-score of the negative control of the plate (i.e., DMSO) ([Korbee et al., 2018]). To minimize the possibility that the presence of extreme values on a plate affected the z-scores, raw values that deviated two-fold from the negative controls were excluded when calculating plate means and standard deviations as used in the aforementioned formula. Compounds were considered a “hit” when z-scoreMRSA+ ≤ -2 and z-scoreHeLa ≥ -3 for cell count. In cases where compounds were screened twice, the average values were used to select hit compounds.

HeLa cells = test: Compound screen by flow cytometry: HeLa cell count as surrogate readout of cell viability (z-scoreHeLa); format: cell-based, human; settings: for z-scoreHeLa mean: mean of 3 replicates; for z-scoreHeLa rep 1 / cell count rep 1: replicate 1; for z-scoreHeLa rep 2 / cell count rep 2: replicate 2; for z-scoreHeLa rep 3 / cell count rep 3: replicate 3
Protocol: as §1, §2
To minimize the possibility that the presence of extreme values on a plate affected the z-scores, raw values that deviated two-fold from the negative controls were excluded when calculating plate means and standard deviations as used in the aforementioned formula. Compounds were considered a “hit” when z-scoreMRSA+ ≤ -2 and z-scoreHeLa ≥ -3 for cell count. In cases where compounds were screened twice, the average values were used to select hit compounds.

[1] = PKIS compound screen, Yes/No call
[2] = PKIS compound screen, Yes/No call (effect without cell death)
[3] = PKIS compounds raw data, MRSA-infected HeLa cells
[4] = PKIS compounds raw data, HeLa cell count
[5] = PKIS compound screen raw data, MRSA-infected HeLa cells
[6] = PKIS compound screen, MRSA-infected HeLa cells
[7] = PKIS compound screen, Yes/No call on z-scoreMRSA+
[8] = PKIS compound screen raw data, HeLa cell count
[9] = PKIS compound screen, HeLa cell count
[10] = PKIS compound screen, Yes/No call on z-scoreHeLa
[11] = compound screen, MRSA-infected HeLa cells
[12] = compound screen, HeLa cell count

SMILES | effect (intracellular MRSA; [1]) | hit (intracellular MRSA; [2]) | z-scoreMRSA+ mean (intracellular MRSA; PKIS compound screen) | z-scoreMRSA+ rep 1 (intracellular MRSA; PKIS compound screen) | z-scoreMRSA+ rep 2 (intracellular MRSA; PKIS compound screen) | z-scoreMRSA+ rep 3 (intracellular MRSA; PKIS compound screen) | %GFP+ rep 1 (intracellular MRSA; [3]) [%] | %GFP+ rep 2 (intracellular MRSA; [3]) [%] | %GFP+ rep 3 (intracellular MRSA; [3]) [%] | cell death (HeLa cells; [1]) | z-scoreHeLa mean (HeLa cells; PKIS compound screen) | z-scoreHeLa rep 1 (HeLa cells; PKIS compound screen) | z-scoreHeLa rep 2 (HeLa cells; PKIS compound screen) | z-scoreHeLa rep 3 (HeLa cells; PKIS compound screen) | cell count rep 1 (HeLa cells; [4]) | cell count rep 2 (HeLa cells; [4]) | cell count rep 3 (HeLa cells; [4]) | %GFP+ rep 1 (intracellular MRSA; [5]) [%] | %GFP+ rep 2 (intracellular MRSA; [5]) [%] | %GFP+ rep 3 (intracellular MRSA; [5]) [%] | other results
O=C(Nc1ccccc1F)NC1CCN(c2ccnc(Nc3ccc(F)cc3)n2)CC1 [GSK1379800A] | No | No | 0.29 | -0.13 | 0.53 | 0.47 | 26.4 | 28.8 | 29.8 | No | 0.79 | 0.80 | 0.32 | 1.24 | 7378 | 6492 | 7551 |  |  |  | 
Cc1cc(NCC(c2ccccc2)c2ccccc2)nc(NCc2ccc(C(F)(F)F)cc2)n1 [GW497681X] | No | No | -1.09 | -0.81 | -1.24 | -1.24 | 22.9 | 19.6 | 20.6 | No | -2.45 | -2.37 | -3.07 | -1.91 | 2106 | 1381 | 2577 | 20.1 | 18.7 | 19.8 | z-scoreMRSA+ mean (intracellular MRSA; [6]): -0.08; z-scoreMRSA+ rep 1 (intracellular MRSA; [6]): 0.35; z-scoreMRSA+ rep 2 (intracellular MRSA; [6]): -0.19; z-scoreMRSA+ rep 3 (intracellular MRSA; [6]): -0.39; effect (intracellular MRSA; [7]): No; cell count rep 1 (HeLa cells; [8]): 17665; cell count rep 2 (HeLa cells; [8]): 6230; cell count rep 3 (HeLa cells; [8]): 5782; z-scoreHeLa mean (HeLa cells; [9]): -2.65; z-scoreHeLa rep 1 (HeLa cells; [9]): -2.12; z-scoreHeLa rep 2 (HeLa cells; [9]): -3.27; z-scoreHeLa rep 3 (HeLa cells; [9]): -2.56; cell death (HeLa cells; [10]): No
COc1cc(C=NNc2ncnc3c2cnn3-c2ccccc2)ccc1O [GW513184X] |  |  |  |  |  |  | 11.7 | 13.3 | 13.0 |  |  |  |  |  | 3697 | 5698 | 7463 |  |  |  | effect (intracellular MRSA; Yes/No call from z-scoreMRSA+): No; hit (intracellular MRSA; Yes/No: effect without cell death): No; z-scoreMRSA+ mean (intracellular MRSA; [11]): -0.46; z-scoreMRSA+ rep 1 (intracellular MRSA; [11]): -0.47; z-scoreMRSA+ rep 2 (intracellular MRSA; [11]): -0.0654; z-scoreMRSA+ rep 3 (intracellular MRSA; [11]): -0.85; cell death (HeLa cells; Yes/No call from z-scoreHeLa): No; z-scoreHeLa mean (HeLa cells; [12]): 0.11; z-scoreHeLa rep 1 (HeLa cells; [12]): -0.98; z-scoreHeLa rep 2 (HeLa cells; [12]): 1.08; z-scoreHeLa rep 3 (HeLa cells; [12]): 0.24
COC(=O)c1cccc(NC(=O)NC2CCN(c3ccnc(NCc4ccc(F)cc4)n3)CC2)c1 [GSK1379860A] | No | No | 0.11 | 0.51 | -0.14 | -0.03 | 29.7 | 25.3 | 27.1 | No | -1.76 | -1.69 | -2.71 | -0.89 | 3229 | 1923 | 4200 | 17.4 | 15.1 | 20.5 | z-scoreMRSA+ mean (intracellular MRSA; [6]): -0.58; z-scoreMRSA+ rep 1 (intracellular MRSA; [6]): -0.37; z-scoreMRSA+ rep 2 (intracellular MRSA; [6]): -1.18; z-scoreMRSA+ rep 3 (intracellular MRSA; [6]): -0.20; effect (intracellular MRSA; [7]): No; cell count rep 1 (HeLa cells; [8]): 26314; cell count rep 2 (HeLa cells; [8]): 10320; cell count rep 3 (HeLa cells; [8]): 10213; z-scoreHeLa mean (HeLa cells; [9]): -1.64; z-scoreHeLa rep 1 (HeLa cells; [9]): -0.66; z-scoreHeLa rep 2 (HeLa cells; [9]): -2.56; z-scoreHeLa rep 3 (HeLa cells; [9]): -1.70; cell death (HeLa cells; [10]): No
